Data taken from patent publication US7629323B2, “Manipulation of neuronal ion channels” (Northwestern University, priority 2003, dated 2009).

Tests used:
[1] = molecular target: T1, homomeric Kv3.4a channels (Rattus norvegicus, UniProt Q63734); test: Whole-cell recording of homomeric Kv3.4a channels expressed in HEK293 cells; format: cell-based; details: n=5
T1 construct: expressed in transfected cells; host or cells: HEK293
T1 sequence (Q63734 1-625): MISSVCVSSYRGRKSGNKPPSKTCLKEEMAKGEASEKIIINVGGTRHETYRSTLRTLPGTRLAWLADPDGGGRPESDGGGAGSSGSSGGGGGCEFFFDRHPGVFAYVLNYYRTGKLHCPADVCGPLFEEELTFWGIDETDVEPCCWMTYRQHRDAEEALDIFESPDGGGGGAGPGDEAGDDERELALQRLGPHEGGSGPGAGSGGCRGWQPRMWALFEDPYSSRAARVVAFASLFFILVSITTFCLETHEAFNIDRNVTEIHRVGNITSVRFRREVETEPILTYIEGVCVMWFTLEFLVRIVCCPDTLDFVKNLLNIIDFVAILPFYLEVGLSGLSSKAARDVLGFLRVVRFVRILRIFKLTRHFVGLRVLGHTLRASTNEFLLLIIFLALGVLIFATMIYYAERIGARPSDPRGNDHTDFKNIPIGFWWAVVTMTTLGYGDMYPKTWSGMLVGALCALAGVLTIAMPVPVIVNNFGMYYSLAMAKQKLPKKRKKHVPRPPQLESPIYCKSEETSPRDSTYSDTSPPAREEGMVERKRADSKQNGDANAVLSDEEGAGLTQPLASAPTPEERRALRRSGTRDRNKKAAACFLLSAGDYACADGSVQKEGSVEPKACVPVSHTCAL
Text: (§1) Electrophysiology. Whole-cell recordings used standard techniques^27,28. The internal solution consisted of (in mM): 30-90 K2SO4, 0-60 N-methyl-D-glucamine, 2 MgCl2, 40 HEPES, 5 EGTA, 12 phosphocreatine, 2 Na2ATP, 0.2 Na3GTP, and 0.1 leupeptin, pH 7.2 with H2SO4 (osmolarity 260-270 mOsm/l). The external solution consisted of (in mM): 140 Na-isethionate, 2 KCl, 4 MgCl2, 10 HEPES, 12 glucose and 0.001 TTX, pH 7.35 with NaOH (osmolarity 295-305 mOsm/l). The internal solution for current clamp recordings consisted of (in mM) 110 potassium methylsulphate, 2 MgCl2, 40 HEPES, 5 EGTA, 12 phosphocreatine, 2 Na2ATP, 0.2 Na3GTP, and 0.1 leupeptin, pH 7.2 with H2SO4 (osmolarity 260-270 mOsm/l). In the case of current clamp recordings, TTX was omitted from external solution. For the recordings in the presence of Ca^+2 ions EGTA was omitted from internal solution and 4 mM of MgCl2 was substituted by 2 mM of CaCl2 and 2 mM of MgCl2. […] Recordings were obtained with Axon Instruments 200 patch-clamp amplifier and controlled and monitored with a PC running pClamp software (version 7.0) (Axon Instruments Inc., Union City, Calif.). […] After seal rupture, series resistance (2-10 MΩ) was compensated (75-90%) and periodically monitored. […]
Single cell RT-PCR (scRT-PCR). […] In the case of co-transfection with Kv3.4a and Kv3.1b cDNA, single cell RT-PCR was used to confirm the presence of both mRNAs in the recorded cell. […]

FS neurons = test: Current clamp recording of spiking in FS neurons; format: cell-based, rat
Text: (§2) Tissue preparation. […] Hippocampal interneurons and GP were identified as CaMKII negative, GAD67 and parvalbumin positive neurons by single cell RT-PCR detection of corresponding mRNAs following physiology experiments (see below).
Electrophysiology. Whole-cell recordings used standard techniques^27,28. The internal solution consisted of (in mM): 30-90 K2SO4, 0-60 N-methyl-D-glucamine, 2 MgCl2, 40 HEPES, 5 EGTA, 12 phosphocreatine, 2 Na2ATP, 0.2 Na3GTP, and 0.1 leupeptin, pH 7.2 with H2SO4 (osmolarity 260-270 mOsm/l). The external solution consisted of (in mM): 140 Na-isethionate, 2 KCl, 4 MgCl2, 10 HEPES, 12 glucose and 0.001 TTX, pH 7.35 with NaOH (osmolarity 295-305 mOsm/l). The internal solution for current clamp recordings consisted of (in mM) 110 potassium methylsulphate, 2 MgCl2, 40 HEPES, 5 EGTA, 12 phosphocreatine, 2 Na2ATP, 0.2 Na3GTP, and 0.1 leupeptin, pH 7.2 with H2SO4 (osmolarity 260-270 mOsm/l). In the case of current clamp recordings, TTX was omitted from external solution. For the recordings in the presence of Ca^+2 ions EGTA was omitted from internal solution and 4 mM of MgCl2 was substituted by 2 mM of CaCl2 and 2 mM of MgCl2. All drugs were obtained from Sigma (St. Louis, […]) except BDS-I that was obtained from Alomone Labs (Jerusalem, Israel). Solutions were applied by gravity fed sewer pipe system. Recordings were obtained with Axon Instruments 200 patch-clamp amplifier and controlled and monitored with a PC running pClamp software (version 7.0) (Axon Instruments Inc., Union City, Calif.). […] After seal rupture, series resistance (2-10 MΩ) was compensated (75-90%) and periodically monitored. […] Activation data were fit with a Boltzmann equation of the form: 1/(1+exp ((Vh−V)/Vc), V stands for membrane potential. In the case of Kv3.4a current, an estimate of peak current was obtained by single exponential fit of decay phase extrapolated to the start of test pulse. In all other instances the voltage dependence of the currents was obtained from the amplitude of tail currents measured following 200 msec long voltage steps. […]

[2] = test system: Na+ currents in FS neurons; test: Na+ currents in FS neurons; format: cell-based, rat; details: n=3
Text: as §2
as §1, with “solution.” for “solution. For the recordings in the presence of Ca^+2 ions EGTA was omitted from internal solution and 4 mM of MgCl2 was substituted by 2 mM of CaCl2 and 2 mM of MgCl2.”

[3] = test system: K+ channels in the Kv1, Kv2, Kv3, and Kv4 subfamilies; details: cited from earlier work
homomeric Kv3.4 channels = molecular target: T2, homomeric Kv3.4 channels (Rattus norvegicus, UniProt Q63734); details: low micromolar concentrations; cited from earlier work
T2 sequence (Q63734 1-625): T1 sequence (Q63734 1-625)

For “BDS-I (AAPCFCSGKPGRGDLWILRGTCPGGYGYTSNCYKWPNICCYPH)”, the “effect on homomeric Kv3.4a channel currents” value [1] was “slowed the rising phase of the currents but led to larger currents later in the step”, the “change in the rate of rise in the spike” value (FS neurons) was “no obvious change” and the “increase of duration of spikes in FS neurons” value (FS neurons; BDS-I 2 μM, extracellular Ca2+ 2 mM, n=4) was 53+13%. For the same substance, the “rate of repetitive spiking evoked by sustained current injection” value (FS neurons; with and without extracellular Ca2+) was “slowed”, the “inactivation kinetics of Na+ currents in FS neurons” value [2] was “didn't significantly alter” and the “block of other K+ channels in the Kv1, Kv2, Kv3, and Kv4 subfamilies” value [3] was “failed to block”. The “block of homomeric Kv3.4 channels” value (homomeric Kv3.4 channels) was “blocks”.
